# Measured values as given in patent US6841236B2, “Articles containing thioxanthone dyes” (3M Innovative Properties Co., priority 2001, dated 2005).
# Experiments:
# Type in all cases: physicochemical
# [1] = Dye concentration in saturated acetone solution at room temperature; details: 72 hours at RT, 0.45 micron PTFE filtered, absorbance at 535 nm
# Procedure: Examples 4-7 were prepared by placing 60-100 mg of each of the compounds of Examples 1-3 and 6-methoxy-14H-anthra(2,1,9-mna)thioxanthene-14-one (described by Carlini et al.) in a vial with 5.0 ml acetone. […] Each vial was hand shaken and the solution was filtered using a 0.45 micron polytetrafluoroethylene (PTFE) filter commercially available from VWR Scientific Products, West Chester, Pa. under the trade designation “Acrodisc 13CR PTFE”.
# The amount of fluorescent dye in the saturated acetone solution was determined by measuring the major dye absorption band at 535 nm using a UV-Vis Spectrophotometer commercially available from Shimadzu Scientific Instruments, Inc., Columbia, Md. under the trade designation “Shimadzu model UV-2401PC”. Dye concentrations were calculated by measuring the absorbance of the saturated acetone solution, and then diluting that solution until absorbance of the resulting solution was below 3. The dyes were assumed to have equal absorbance per mole. Using the dilution and an absorbance coefficient of 16,100 A/mol/L (coefficient obtained in acetone for the dye of Example 3) and assuming a Beer's Law relationship, the concentration of dye in each saturated solution was calculated and is set out in TABLE I
# [2] = Daytime color and visual inspection of PMMA film with dye laminated to retroreflective sheeting
# Procedure: (§1) The daytime color of each article was measured using a Labsphere BFC-450 Bispectral Colorimeter commercially available from Labsphere, North Sutton, N.H. The daytime chromaticity (x,y), total luminance factor (YT), and fluorescence luminance factor (YF; which is a measure of the fluorescent properties of the article) calculated for the CIE D65 and the CIE 1931 observer are provided in TABLE II
# Examples 11-16 were prepared with the compounds of Examples 1-2 and 6-methoxy-14H-anthra(2,1,9-mna)thioxanthene-14-one in polymethylmethacrylate (PMMA) resin at the wt.-% of dye shown in TABLE III. The samples were prepared by dry blending the dye with a medium impact modified grade PMMA resin commercially available from Ineos Acrylics Inc., Cordova, Tenn. under the trade designation “CP923”. Films of 0.1 mm thickness were extruded through a single screw extruder with three heating zones set at 249° C. to 260° C. […] Examples 11 and 12 and Examples 13 and 14 had equal molar loadings of dye.
# The resultant films were laminated to Scotchlite 3970 reflective sheeting on aluminum panels as described in Examples 8-10. Color values were measured as described in Examples 8-10 and the results set out in TABLE III.
# [3] = Daytime color of copolyester film with dye laminated to retroreflective sheeting; details: dye 0.2 wt.-% in copolyester resin, 0.1 mm film on Scotchlite 3970
# Procedure: as §1
# Examples 17-18 were prepared as described in Examples 8-10, except that the dyes of Examples 1 and 2 at a 0.2 wt.-% loading were independently incorporated into a copolyester resin. The copolyester resin was prepared using terephthalic and isophthalic acid in an 80/20 ratio and ethylene glycol in the conventional manner and analogous to the production of polyethylene terephthalate according to the method described in Macromolecular Syntheses, A Periodic Publication of Methods for the Preparation of Macromolecules, Collective Volume I, 1977, J. A. Moore, Editor, (John Wiley & Sons, New York; 1978);p. 17-21. The extrusion conditions for the copolyester were 254-260° C. using a single screw extruder and the resultant film thickness was 0.1 mm.
# The resultant films were laminated to Scotchlite 3970 reflective sheeting on aluminum panels as described in Examples 8-10. Color values were measured as described in Examples 8-10 and the results set out in TABLE IV.
# [4] = Daytime color of vinyl film with dye laminated to retroreflective sheeting; details: 0.18 g dye in 65 g GEON 178 / Elvacite 2013 mixture, 0.04 mm vinyl film on Scotchlite 3970
# Procedure: as §1
# Examples 22-23 were prepared by independently stirring 0.18 g of the dye of Examples 1 and 3 into 65 g of a mixture composed of 42 wt.-% DIBK, xylol, and mineral spirit (1.7:2.3:1), 44 wt.-% of a polyvinyl chloride dispersion commercially available from PolyOne, Cleveland, Ohio under the trade designation “GEON 178” and 14 wt.-% of a polyacrylate commercially available from Ineos Acrylics Inc., Cordova, Tenn. under the trade designation “Elvacite 2013”. Each mixture was allowed to stand at room temperature for one hour prior to knife coating onto a pre-sized paper substrate. Each coated substrate was placed in a 150° F. (66° C.) oven for 1.5 minutes, followed by a 300° F. (149° C.) oven for 1.0 minute and a 400° F. (204° C.) oven for 0.75 minute, resulting in a 0.04 mm thick fluorescent colored vinyl film.
# The resultant films were laminated to Scotchlite 3970 reflective sheeting on aluminum panels as described in Examples 8-10. Color values were measured as described in Examples 8-10 and the results set out in TABLE VI.
# [5] = Daytime color of polyurethane film with dye laminated to retroreflective sheeting; details: dye 0.2 wt.-% in aliphatic polyester polyurethane PN03.214, 0.1 mm film on Scotchlite 3970
# Procedure: as §1
# Examples 24-27 were prepared as described in Examples 8-10, except that the dyes of Examples 1, 3, 6-(2-hydroxy-ethoxy)-14H-anthra(2,1,9-mna)thioxanthene-14-one (described by Carlini et al.) and 6-methoxy-14H-anthra(2,1,9-mna)thioxanthene-14-one were independently used at 0.2 wt.-% loading in an aliphatic polyester polyurethane resin commercially available from Huntsman Polyurethanes, West Deptford, N.J., USA under the trade designation “PN03.214”. The extrusion conditions for the polyurethane were 154-191° C. and the resultant film thickness was 0.1 mm.
# The resultant films were laminated to Scotchlite 3970 reflective sheeting on aluminum panels as described in Examples 8-10. Color values were measured as described in Examples 8-10 and the results set out in TABLE VII.
# [6] = dye 0.2 wt-% in PMMA CP923, 0.1 mm film on Scotchlite 3970
# [7] = dye 0.38 wt-% in PMMA CP923, 0.1 mm film on Scotchlite 3970
# [8] = dye 1.27 wt-% in PMMA CP923, 0.1 mm film on Scotchlite 3970
structure (smiles),measurement,setting,value
"CCCCCCCCOc1cc2c3ccccc3c(=O)c3ccc4c5ccccc5sc1c4c32 [Example 1, 6-n-Octyloxy-14H-anthra(2,1,9mna)thioxanthene-14-one]",Dye Concentration in Acetone at RT,[1],0.19 mg/mL
same,fluorescence relative to articles with the 6-methoxy dye,"[2]; PMMA films, equal molar loadings of dye, by fluorescence luminance factor",higher fluorescence
same,X (daytime chromaticity),[2]; [6],0.5210
same,YF (fluorescence luminance factor),[2]; [6],16.83
same,YT (total luminance factor),[2]; [6],30.85
same,y (daytime chromaticity),[2]; [6],0.3252
same,X (daytime chromaticity),[2]; [7],0.5923
same,YF (fluorescence luminance factor),[2]; [7],13.74
same,YT (total luminance factor),[2]; [7],19.96
same,y (daytime chromaticity),[2]; [7],0.3022
same,X (daytime chromaticity),[2]; [8],0.6305
same,YF (fluorescence luminance factor),[2]; [8],4.97
same,YT (total luminance factor),[2]; [8],7.80
same,y (daytime chromaticity),[2]; [8],0.3008
same,visual inspection of film for undissolved dye,"[2]; extruded PMMA CP923 film 0.1 mm, 6-methoxy dye at 1 wt.-%, dyes of Examples 1-2 at up to 1.27 wt-%",uniform appearance with no undissolved dye seen
same,YF (fluorescence luminance factor),[3],11.70
same,YT (total luminance factor),[3],22.83
same,x (daytime chromaticity),[3],0.5429
same,y (daytime chromaticity),[3],0.3056
same,Y (daytime chromaticity),[4],0.2762
same,YF (fluorescence luminance factor),[4],12.31
same,YT (total luminance factor),[4],23.82
same,x (daytime chromaticity),[4],0.5149
same,X (daytime chromaticity),[5],0.5739
same,YF (fluorescence luminance factor),[5],11.83
same,YT (total luminance factor),[5],17.46
same,y (daytime chromaticity),[5],0.2692
